The values below come from patent US5684012A, “Dimeric piperidine, tetrahydropyridine and piperazine derivatives” (H. Lundbeck A/S, priority 1992, dated 1997).

Counter-ions that a name gives are not always drawn.

The target in one assay is sigma receptors. In words: Inhibition of ^3H-DTG binding to sigma receptors in rat brain in vitro. Particulars: Table I; 2 nM ^3H-DTG, rat brain without cerebellum, 25° C., 20 min.
`c1ccc2c(c1)COC21CCN(CCCCN2CCC3(CC2)OCc2ccccc23)CC1` [Compound 1a, 1,4-Bis[spiro[isobenzofuran-1(3 H),4'-piperidin]-1'-yl]butane] gave an IC50 of 0.64 nM.

`Fc1ccc(C2CCN(CCCCN3CCC(c4ccc(F)cc4)CC3)CC2)cc1` [Compound 1b, 1,4-Bis[4-(4-fluorophenyl)piperidin-1-yl]butane]: the IC50 was 0.41 nM.

`c1ccc2c(c1)COC1(CCN(CCCCN3CCC4(CC3)Cc3ccccc3CO4)CC1)C2` [Compound 1c, 1,4-Bis[1,4-dihydro-spiro[2-benzopyran-3,4'-piperidin]-1'-yl]butane] registered an IC50 of 16 nM. Compared with the last molecule, the IC50 is about 39-fold higher.

Consider `Fc1ccc(C2CCN(CCCCCN3CCC(c4ccc(F)cc4)CC3)CC2)cc1` [Compound 1d, 1,5-Bis[4-(4-fluorophenyl)piperidin-1-yl]pentane, 2.5 fumarate], for which the IC50 was found to be 1.4 nM.

For `Fc1ccc(N2CCN(CCCCN3CCN(c4ccc(F)cc4)CC3)CC2)cc1` [Compound 1e, 1,4-Bis[4-(4-fluorophenyl)piperazin-1-yl]butane], the IC50 came to 0.89 nM.

On to `c1ccc2c(c1)COC21CCN(CCCCCCN2CCC3(CC2)OCc2ccccc23)CC1` [Compound 1f, 1,6-Bis[spiro[isobenzofuran-1(3 H),4'-piperidin]-1'-yl]hexane], for which the IC50 turned out to be 0.71 nM.

As for `Fc1ccc2c(c1)C1(CCN(CCCCN3CCC4(CC3)OCc3ccc(F)cc34)CC1)OC2` [Compound 1g, 1,4-Bis[6-fluoro-spiro[isobenzofuran-1(3 H),4'-piperidin]-1'-yl]butane], the IC50 worked out at 0.44 nM.

As for `c1ccc2c(c1)COC21CCN(CCCCCN2CCC3(CC2)OCc2ccccc23)CC1` [Compound 1h, 1,5-Bis[spiro[isobenzofuran-1(3 H),4'-piperidin]-1-yl]pentane tetrafumarate], the IC50 was 2 nM. Against the preceding molecule, the IC50 is about 4.5-fold higher.

As for `c1ccc2c(c1)OC1(CCN(CCCCN3CCC4(CC3)Oc3ccccc3O4)CC1)O2` [Compound 1i, 1,4-Bis[spiro[1,3-benzodioxol-2,4'-piperidin]-1'-yl]butane], the IC50 was 45 nM.

`FC(F)(F)c1ccc2c(c1)C1(CCN(CCCCN3CCC4(CC3)OCc3ccc(C(F)(F)F)cc34)CC1)OC2` [Compound 1j, 1,4-Bis[6-(trifluoromethyl)-spiro[isobenzofuran-1(3 H),4'-piperidin]-1-yl]butane, dihydrochloride] returned an IC50 of 19 nM.

Molecule `c1ccc2c(c1)COCC21CCN(CCCCN2CCC3(CC2)COCc2ccccc23)CC1` [Compound 1k, 1,4-Bis[1,3-dihydro-spiro[2-benzopyran-4,4'-piperidin]-1'-yl]butane] registered an IC50 of 8.7 nM.

Molecule `Cc1ccc2c(c1)COC21CCN(CCCCN2CCC3(CC2)OCc2cc(C)ccc23)CC1` [Compound 1l, 1,4-Bis[5-methyl-spiro[isobenzofuran-1(3 H),4'-piperidin]-1-yl]butane] returned an IC50 of 23 nM. This IC50 lies about 2.6-fold higher than the previous one.

The molecule `Fc1cccc2c1C1(CCN(CCCCN3CCC4(CC3)OCc3cccc(F)c34)CC1)OC2` [Compound 1m, 1,4-Bis[7-fluoro-spiro[isobenzofuran-1(3 H),4'-piperidin]-1'-yl]butane] displayed an IC50 of 5.1 nM.

As to `c1ccc2c(c1)COC21CC2CCC(C1)N2CCCCN1C2CCC1CC1(C2)OCc2ccccc21` (stereo not drawn) [Compound 1n, 1,4-Bis[spiro[isobenzofuran-1(3 H),3'-8'-azabicyclo[3',2',1']octan]-8'-yl]butane], the IC50 stood at 99 nM.

Consider `Fc1ccc(C2=CC3CCC(C2)N3CCCCN2C3C=C(c4ccc(F)cc4)CC2CC3)cc1` [Compound 1o, 1,4-Bis[3-(4-fluorophenyl)-8-azabicyclo[3,2,1]oct-2-en-8-yl]butane], for which the IC50 is 74 nM.

For `C1=CC2(CCN(CCCCN3CCC4(C=Cc5ccccc5O4)CC3)CC2)Oc2ccccc21` [Compound 1p, 1,4-Bis[spiro[1-benzopyran-2,4'-piperidin]-1-yl]butane, difumarate], the IC50 worked out at 32 nM.

As for `c1ccc2c(c1)CCCC21CCN(CCCCN2CCC3(CCCc4ccccc43)CC2)CC1` [Compound 1q, 1,4-Bis[3,4-dihydro-spiro[naphthalene-1(2 H),4'-piperidin]-1'-yl]butane], the IC50 turned out to be 4 nM.

Take `c1ccc2c(c1)CCC1(CCN(CCCCN3CCC4(CCc5ccccc5O4)CC3)CC1)O2` [Compound 1r, 1,4-Bis[3,4-dihydro-spiro[1-benzopyran-2,4'-piperidin]-1-yl]butane, difumarate]: the IC50 was found to be 130 nM.

The molecule `c1ccc2c(c1)CSC21CCN(CCCCN2CCC3(CC2)SCc2ccccc23)CC1` [Compound 1s, 1,4-Bis[spiro[isobenzothiophene-1(3 H),4'-piperidin]-1-yl]butane] displayed an IC50 of 0.04 nM.

For the molecule `c1ccc2c(c1)CCOC21CCN(CCCCN2CCC3(CC2)OCCc2ccccc23)CC1` [Compound 1t, 1,4-Bis[spiro[1-benzopyran-2,4'-piperidin]-1-yl]butane, 1.25 fumarate], the IC50 came out at 0.38 nM.

`c1ccc2c(c1)OCCC21CCN(CCCCN2CCC3(CCOc4ccccc43)CC2)CC1` [Compound 1u, 1,4-Bis[spiro[1-benzopyran-4,4'-piperidin]-1'-yl]butane] came in with an IC50 of 0.17 nM.

Regarding `c1ccc2c(c1)COC21CCN(CCCN2CCC3(CC2)OCc2ccccc23)CC1` [Compound 2a, 1,3-Bis[spiro[isobenzofuran-1(3 H),4'-piperidin]-1'-yl]propane difumarate], the IC50 was 0.76 nM. Against the preceding molecule, the IC50 is about 4.5-fold higher.

As for `Fc1ccc(C2CCN(CCCN3CCC(c4ccc(F)cc4)CC3)CC2)cc1` [Compound 2b, 1,3-Bis[4-(4-fluorophenyl)piperidin-1-yl]propane], the IC50 was 0.17 nM. This IC50 is about 4.5-fold lower than that of the molecule before.

Consider `c1ccc2c(c1)COC21CCN(CCN2CCC3(CC2)OCc2ccccc23)CC1` [Compound 2c, 1,2-Bis[spiro[isobenzofuran-1(3 H),4'-piperidin]-1'-yl]ethane], for which the IC50 was determined as 0.23 nM.

As to `Fc1ccc(C2CCN(CCN3CCC(c4ccc(F)cc4)CC3)CC2)cc1` [Compound 2d, 1,2-Bis[4-(4-fluorophenyl)piperidin-1-yl]ethane], the concentration for half-maximal inhibition (IC50) came out at 0.5 nM.

Consider `c1ccc2c(c1)COC21CCN(CCN(CCN2CCC3(CC2)OCc2ccccc23)C2CCCC2)CC1` [Compound 3a, N,N-Bis[2-spiro[isobenzofuran-1(3 H),4'-piperidin]-1'-ylethyl]-N-cyctopentylamine, trihydrochloride], for which the IC50 worked out at 1.5 nM. Against the preceding molecule, the IC50 is about 3-fold higher.

With `CN(CCN1CCC2(CC1)OCc1ccccc12)CCN1CCC2(CC1)OCc1ccccc12` [Compound 3b, N,N-Bis[2-spiro[isobenzofuran-1(3 H),4'-piperidin]-1'-ylethyl]-N-methylamine, trihydrochloride], the IC50 was 4.9 nM.

The molecule `C1=CC2(CCN(CCCCN3CCC4(C=Cc5ccccc54)CC3)CC2)c2ccccc21` [Compound 4a, 1,4-Bis[spiro[ind-2-en-1,4'-piperidin]-1'-yl]butane] yielded an IC50 of 4 nM. This IC50 and that of the molecule before are within 1.5-fold of each other.

Molecule `c1ccc2c(c1)CCC21CCN(CCCCN2CCC3(CCc4ccccc43)CC2)CC1` [Compound 5a, 1,4-Bis[spiro[indan-1,4'-piperidin]-1'-yl]butane] gave a 50% inhibitory concentration (IC50) of 3.1 nM.

Consider `Fc1ccc(C2=CCN(CCCCN3CC=C(c4ccc(F)cc4)CC3)CC2)cc1` [Compound 6a, 1,4-Bis[4-(4-fluorophenyl)-1,2,3,6-tetrahydropyridin-1-yl]butane], for which the IC50 is 0.31 nM.

`Fc1ccc(C2CCN(CCN(CCN3CCC(c4ccc(F)cc4)CC3)c3ccccc3)CC2)cc1` [Compound 7a, N,N-Bis[2-[4-(4-fluorophenyl)piperidin-1-yl]ethyl]aniline] registered an IC50 of 3.6 nM. This IC50 lies about 12-fold higher than the previous one.

The molecule `Fc1ccc(C(CCN2CCC3(CC2)OCc2ccccc23)CCN2CCC3(CC2)OCc2ccccc23)cc1` [Compound 7b, 1,5-Bis[spiro[isobenzofuran-1(3 H),4'-piperidin]-1'-yl]-3-(4-fluorophenyl)pentane, difumarate] registered an IC50 of 0.72 nM.

Consider `c1ccc2c(c1)COC21CCN(CCSCCN2CCC3(CC2)OCc2ccccc23)CC1` [Compound 8a, Bis[2-spiro[isobenzofuran-1(3 H),4'-piperidin]-1-ylethyl]sulphide, difumarate], for which the IC50 turned out to be 0.78 nM.

Consider `O=S(=O)(CCN1CCC2(CC1)OCc1ccccc12)CCN1CCC2(CC1)OCc1ccccc12` [Compound 9a, Bis[2-spiro[isobenzofuran-1(3 H),4'-piperidin]-1'-ylethyl]sulphone], for which the IC50 amounted to 1800 nM.

In turn, `c1ccc2c(c1)COC21CCN(CCOCCN2CCC3(CC2)OCc2ccccc23)CC1` [Compound 10a, Bis[2-spiro[isobenzofuran-1(3 H),4'-piperidin]-1'-ylethyl]ether,dihydrochloride] registered an IC50 of 2.5 nM.

In turn, `Cc1ccc2c(c1)COC21CCN(CCCCCCN2CCC3(CC2)OCc2cc(C)ccc23)CC1` [Compound 11a, 1,6-Bis[5-methyl-spiro[isebenzofuran-1(3 H),4'-piperidin]-1-yl]hexane] displayed an IC50 of 9.7 nM.

The molecule `OC(CN1CCC(c2ccc(F)cc2)CC1)CN1CCC(c2ccc(F)cc2)CC1` [Compound 12a, 1,3-Bis[4-(4-fluorophenyl)piperidin-1-yl]-2-propanol] had an IC50 of 2.4 nM. This IC50 lies about 4-fold lower than the previous one.

As for `O=C(CN1CCN(c2ccc(F)cc2)CC1)CN1CCN(c2ccc(F)cc2)CC1` [Compound 13a, 1,3-Bis[4-(4-fluorophenyl)piperazin-1-yl]-2-propanone], the IC50 turned out to be 2500 nM. This IC50 is about 1000-fold higher than that of the molecule before.

Test system in another assay: not given
Test: not given
Particulars: clinical; Snyder and Largent 1989; cited from earlier work.
Consider `C[C@@H]1CN(CCCn2c3ccccc3c3ccccc32)C[C@H](C)N1` [Rimcazole, reference compound], for which the “effects in the treatment of psychosis” value is listed as “clinically shows effects in the treatment of psychosis”.
